# Calls of active or inactive are those of the source. No rule for the calls is given here.
# Molecular target: BioA (adenosylmethionine-8-amino-7-oxononanoate aminotransferase), Mycobacterium tuberculosis
# Experiment: inhibition of purified M. tuberculosis BioA – biochemical, plate reader, dry powder samples, dose response (AID 720592)
# Settings: purified Mtb BioA enzyme, plate reader activity; for inhibition: at 10 µM (top of the series)
SMILES,inhibition,AC50
CC(=O)c1ccc(N2CCN(C(=O)c3ccc(F)cc3)CC2)cc1,inactive,–
Cc1cccc(/C=C(\CCC(=O)O)c2nc3ccccc3s2)c1,inactive,–
Cc1ccccc1/C=C(\CCC(=O)O)c1nc2ccccc2s1,–,> 20 µM (inactive)
COc1cc(/C=C/C(=O)Nc2cccnc2)cc(OC)c1OC,inactive,–
CC(=O)c1ccc(N2CCN(C(=O)c3ccc4c(c3)OCCO4)CC2)cc1,inactive,–
CC(=O)c1ccc(N2CCN(C(=O)c3ccc4c(c3)OCO4)CC2)cc1,inactive,–
COc1cccc(NC(=O)N2CCN(c3ccccc3)CC2)c1,inactive,–
COc1ccc(NC(=O)N2CCN(c3ccccc3)CC2)cc1,–,> 20 µM (inactive)
Cc1ccc(-c2cc(C(F)(F)F)n3nc(C(=O)Nc4cccnc4)cc3n2)cc1,inactive,–
O=C(Nc1cccnc1)c1cnn2c(C(F)(F)F)cc(-c3ccccc3)nc12,–,> 20 µM (inactive)
CCc1ccc(N2CCN(C(=O)c3ccc4c(c3)OCO4)CC2)cc1,inactive,–
CC(=O)c1ccc(N2CCN(C(=O)c3ccc(Br)cc3)CC2)c(F)c1,inactive,–
CC(=O)c1ccc(N2CCN(C(=O)c3cccc(F)c3)CC2)cc1,inactive,–
Cc1ccc(/C=C(\CCCC(=O)O)c2nc3ccccc3s2)cc1[N+](=O)[O-],inactive,–
Cc1ccc(NC(=O)N2CCN(c3ccccc3)CC2)cc1,inactive,–
O=C(COc1ccc2ccc(=O)oc2c1)N1CCN(c2ccc(F)cc2)CC1,inactive,–
CC(=O)c1ccc(N2CCN(C(=O)c3cccc(Cl)c3)CC2)cc1,–,> 20 µM (inactive)
COc1ccc(N2CCN(C(=O)c3ccc4c(c3)OCO4)CC2)cc1,inactive,–
CC(=O)c1ccc(N2CCN(C(=O)c3ccc(Cl)cc3)CC2)cc1,inactive,–
CCOC(=O)N1CCN(C(=O)Nc2ccc3snnc3c2)CC1,inactive,–

SMILES,inhibition,AC50
O=C(Nc1ccc(F)cc1)N1CCN(c2ccccc2)CC1,–,> 20 µM (inactive)
O=C(c1ccc2c(c1)OCO2)N1CCN(c2ccc(F)cc2)CC1,inactive,–
Cc1cc(C)n2nc(C(=O)Nc3cccnc3)cc2n1,inactive,–
CCN(CC)c1ccc2cc(C(=O)c3cccs3)c(=O)oc2c1,inactive,–
O=C(Nc1cccc(F)c1)N1CCN(c2ccccc2)CC1,inactive,–
Cc1nc2ccc(NC(=O)N3CCN(c4ccccc4)CC3)cc2s1,inactive,–
O=C(Nc1cccc(Cl)c1)N1CCN(c2ccccc2)CC1,inactive,–
O=C(Nc1ccncc1)c1cc2nc(C3CC3)cc(C(F)F)n2n1,inactive,–
O=C(Nc1cccnc1)c1cnn2c(C(F)F)cc(C3CC3)nc12,inactive,–
COc1ccc(-c2cc(C(F)(F)F)n3nc(C(=O)Nc4cccnc4)cc3n2)cc1,inactive,–
COC(=O)c1c(C(=O)OC)c(-c2cccc(F)c2)n2c1CS(=O)C2 (stereo not given),inactive,–
O=C(Nc1ccccc1)N1CCN(c2ccccc2)CC1,inactive,–
Cc1ccc(/C=C(\CCC(=O)O)c2nc3ccccc3s2)cc1[N+](=O)[O-],inactive,–
Cc1ccc(/C=C(\CCC(=O)O)c2nc3ccccc3s2)cc1,inactive,–
Cc1cc(C)n2nc(C(=O)Nc3cccnc3)nc2n1,–,> 20 µM (inactive)
CC(=O)c1ccc(N2CCN(Cc3ccc4c(c3)OCO4)CC2)cc1,inactive,–
COc1ccc(C(=O)N2CCN(c3ccc(C(C)=O)cc3)CC2)cc1,–,> 20 µM (inactive)
CCc1ccc(C(=O)N2CCN(Cc3ccc4c(c3)OCO4)CC2)cc1,inactive,–
O=C(Nc1ccc2snnc2c1)N1CCN(c2ccccc2)CC1,inactive,–
CC(=O)c1ccc(N2CCN(C(=O)c3cccnc3)CC2)cc1,inactive,–

SMILES,inhibition,AC50
O=C(Nc1ccc2snnc2c1)N1CCOCC1,inactive,–
O=C(Nc1cccnc1)N1CCN(c2ccccc2)CC1,inactive,–
O=C(c1ccc2c(c1)OCO2)N1CCN(c2ccc(Cl)cc2)CC1,–,> 20 µM (inactive)
Cc1ccc(/C=C(\CC(=O)O)c2nc3ccccc3s2)cc1[N+](=O)[O-],inactive,–
O=C(Nc1cccnc1)c1cc2nc(-c3cccs3)cc(C(F)(F)F)n2n1,inactive,–
CC(=O)c1ccc(N2CCN(C(=O)c3ccc(C)cc3)CC2)cc1,inactive,–
O=C(Nc1ccc2snnc2c1)N1CCCCC1,inactive,–
O=C(c1ccc2c(c1)OCO2)N1CCN(c2ccccc2)CC1,inactive,–
CC(C)(C)c1ccc(C(=O)N2CCN(c3ccc4c(c3)OCO4)CC2)cc1,inactive,–
CC(=O)c1ccc(N2CCN(C(=O)c3ccc4ncsc4c3)CC2)cc1,inactive,–
O=C(O)CC/C(=C\c1ccc([N+](=O)[O-])cc1)c1nc2ccccc2s1,inactive,–
O=C(Nc1ccc2[nH]ccc2c1)N1CCN(c2ccccc2)CC1,inactive,–
CC(=O)c1ccc(N2CCN(C(=O)c3ccccc3)CC2)cc1,inactive,–
O=C(O)CC/C(=C\c1ccccc1[N+](=O)[O-])c1nc2ccccc2s1,inactive,–
COc1cccc(NC(=O)CCC2CCN(C(=O)c3ccc(C(C)=O)s3)CC2)c1,inactive,–
O=C(c1ccc2c(c1)OCO2)N1CCN(Cc2ccccc2)CC1,inactive,–
COc1cccc(C(=O)N2CCN(c3ccc(C(C)=O)cc3)CC2)c1,inactive,–
O=C(Nc1ccc(Cl)cc1)c1cc2nc(C3CC3)cc(C(F)(F)F)n2n1,inactive,–
Cc1nc2cc(NC(=O)N3CCN(c4ccccc4)CC3)ccc2o1,inactive,–
O=C(Nc1ccc(Cl)c(-c2nc3ccccc3[nH]2)c1)c1cccnc1,inactive,–

# — PubChem BioAssay AID720592 (Broad Institute, 2013)
